Reference: US9549911B2, “Ginger metabolites and uses thereof” (North Carolina A&T State University, priority 2012, dated 2017)

Experiments:
H-1299 cells = experiment: TUNEL apoptosis assay (Part 1); format: cell-based, human; settings: 24 h
Protocol: (§1) HCT-116 and H-1299 cells were seeded in six-well plates at 1.0×10^5 cells/well and were incubated at 37° C. in a 5% CO2 incubator. After 24 h, fresh media supplemented with DMSO (control), [6]-shogaol (10 or 20 μM), M9 (40 or 80 μM), or M11 (40 or 80 μM) were added to the wells. After 24-h incubation, cells were washed and pretreated for 15 min at room temperature with a solution of 20 μg/ml proteinase K. Cells were then washed twice with PBS pH 7.4 and were fixed for 10 min at room temperature using 10% neutral formaldehyde solution. After two washes in distilled H2O, cells were resuspended in 100 μl of distilled H2O and were applied on silanized microscope slides. Slides were incubated overnight at 37° C. and were washed twice with PBS. Terminal deoxynucleotidyl transferase deoxyuridine triphosphate nick-end labeling (TUNEL) assay was then performed according to the manufacturer's protocol. Cells were observed under 400× power using a Zeiss A1 microscope (Carl Zeiss, Inc., Thornwood, N.Y.).
(§2) Ten fields per slide were evaluated, and TUNEL-positive cells (with brown coloration in the nucleus) were expressed as a percentage of the total number of cells contained in a field. Statistical Analysis. For simple comparisons between two groups, twotailed Student's t test was used. A p value of less than 0.05 was considered statistically significant in all the tests.

HCT-116 cells = experiment: TUNEL apoptosis assay (Part 1); format: cell-based, human; settings: 24 h
Protocol: as §1, §2

[1] = Kinetic study of [6]-shogaol metabolism to M6 in liver microsomes; format: in vitro ADME, monkey; settings: monkey liver microsomes 0.1 mg/mL, 30 min
Protocol: All incubations were performed in triplicate.

[2] = test system: human colon cancer cells HCT-116; experiment: Cell Death Detection ELISA apoptosis induction (Part 3); format: cell-based; settings: HCT-116, 10 μM, 24 hours
Protocol: (§3) Human colon cancer cells HCT-116 and human lung cancer cells H-1299 were plated in 96-well plates at a density of 5000 cells/well and allowed to attach overnight at 37° C. M14, M15, or [6]-shogaol in DMSO, or DMSO control, diluted in media, were added to cells and incubated for an additional 24 hours at 37° C. After 24 hours, media containing compound was removed and cells were lysed in their respective wells with reagents from a Cell Death Detection ELISA^PLUS kit from Roche Applied Science (Mannheim, Germany). Samples were harvested after cell lysates were spun down at 300 g for 10 minutes. To streptavidin coated microplates, 20 μL samples were added, and mixed with 80 μL Immunoreagent, which consisted of anti-histone-biotin, and anti-DNA-POD, and incubated with gentle shaking for 2 hours at room temperature. After incubation, Immunoreagent was removed and samples were washed 3 times with 250 μL incubation buffer. Substrate solution, ABTS, was added to each well and color was developed for 15 minutes before stopping the reaction with ABTS stop solution and reading absorbance on a microplate reader at 430 nm. Experiments were performed in triplicate and the average is given in comparison to DMSO control with standard deviation.

[3] = test system: human lung cancer cells H-1299; experiment: as above; format: cell-based; settings: H-1299, 10 μM, 24 hours
Protocol: as §3

[4] = test system: HCT-116, HT-29, H-1299, and CL-13 cancer cell lines; experiment: Metabolism of [6]-shogaol in cancer cells; format: in vitro ADME; settings: 10 μM, HCT-116, HT-29, H-1299, CL-13, up to 24 h
Protocol: Cells (1.0×10^6) were plated in six-well culture plates and were allowed to attach for 24 h at 37° C. in 5% CO2 incubator. [6]-Shogaol [in dimethyl sulfoxide (DMSO)] was added to McCoy's 5A medium (containing 10% fetal bovine serum, 1% penicillin/streptomycin, and 1% glutamine) to reach a final concentration of (10 μM) and was incubated with different cancer cell lines (HCT-116, HT-29, H-1299, and CL-13). At different time points (0, 30 min, 1, 2, 4, 6, 8, and 24 h), 190-μl samples of supernatant were taken and transferred to vials containing (10 μl) of 0.2% ascorbic acid to stabilize [6]-shogaol and its metabolites. The metabolites were extracted from media by addition of equal volume of acetonitrile and centrifugation, in which the supernatant was harvested. The samples were then diluted 5-fold in acetonitrile and were analyzed by HPLC ECD.

Km ([1]; read-out: Km of M6 formation): 424 µM | metabolism in cancer cell lines [4]: extensively metabolized
Structure (SMILES): CCCCC/C=C/C(=O)CCc1ccc(O)c(OC)c1 [[6]-shogaol, reference compound]
apoptotic cells (TUNEL) (H-1299 cells; H-1299, 10 μM): 5.2% | apoptotic cells (TUNEL) (H-1299 cells; H-1299, 20 μM): 31.6% | apoptotic cells (TUNEL) (HCT-116 cells; HCT-116, 10 μM): 10.3% | apoptotic cells (TUNEL) (HCT-116 cells; HCT-116, 20 μM): 31.2% | Vmax of M6 formation [1]: 2.99+/−0.28 nanomoles per minute per milli | induction of apoptosis compared to DMSO control [2]: 1 fold | induction of apoptosis compared to DMSO control [3]: ~2 fold
